ChEMBL document CHEMBL4270563, “Neurogenic and neuroprotective donepezil-flavonoid hybrids with sigma-1 affinity and inhibition of key enzymes in Alzheimer's disease” (Eur J Med Chem, 2018)
Active and inactive are the calls of the source. The rule behind the calls is not given here.

Columns and labels:
Homo sapiens = species on record: Homo sapiens; test: Selectivity index, ratio of IC50 for human serum BuChE to IC50 for recombinant human AChE expressed in HEK293 cells; format: cell-based
Acetylcholinesterase [1] = molecular target: T1, Acetylcholinesterase (Homo sapiens, UniProt P22303); test: Inhibition of recombinant human AChE expressed in HEK293 cells using acetylthiocholine iodide as substrate pretreated for 5 mins followed by substrate addition and measured for 5 mins by Ellman's method
T1 sequence (P22303 whole entry): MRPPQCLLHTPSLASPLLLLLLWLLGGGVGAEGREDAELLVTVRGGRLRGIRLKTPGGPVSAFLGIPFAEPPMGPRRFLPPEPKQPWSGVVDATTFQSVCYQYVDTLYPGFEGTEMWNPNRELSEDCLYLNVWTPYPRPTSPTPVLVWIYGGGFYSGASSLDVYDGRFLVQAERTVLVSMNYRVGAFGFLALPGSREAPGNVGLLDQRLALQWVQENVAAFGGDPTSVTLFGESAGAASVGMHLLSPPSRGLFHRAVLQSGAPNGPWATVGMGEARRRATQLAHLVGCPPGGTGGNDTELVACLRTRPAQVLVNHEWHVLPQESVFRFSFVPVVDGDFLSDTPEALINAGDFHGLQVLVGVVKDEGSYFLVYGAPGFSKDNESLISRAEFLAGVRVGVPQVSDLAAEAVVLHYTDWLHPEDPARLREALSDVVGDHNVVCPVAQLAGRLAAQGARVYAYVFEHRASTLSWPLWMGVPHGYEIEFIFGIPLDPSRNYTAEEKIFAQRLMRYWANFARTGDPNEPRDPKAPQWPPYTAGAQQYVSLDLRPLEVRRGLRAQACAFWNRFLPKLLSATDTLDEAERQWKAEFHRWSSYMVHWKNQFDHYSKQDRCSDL

[2] = molecular target: T2, Amine oxidase [flavin-containing] A (Homo sapiens, UniProt P21397); test: Inhibition of recombinant human MAO-A expressed in baculovirus infected BTI insect cells using p-tyramine as substrate pretreated for 15 mins followed by substrate addition by horse-radish peroxidase/amplex red-based fluorescence method
T2 sequence (P21397 whole entry): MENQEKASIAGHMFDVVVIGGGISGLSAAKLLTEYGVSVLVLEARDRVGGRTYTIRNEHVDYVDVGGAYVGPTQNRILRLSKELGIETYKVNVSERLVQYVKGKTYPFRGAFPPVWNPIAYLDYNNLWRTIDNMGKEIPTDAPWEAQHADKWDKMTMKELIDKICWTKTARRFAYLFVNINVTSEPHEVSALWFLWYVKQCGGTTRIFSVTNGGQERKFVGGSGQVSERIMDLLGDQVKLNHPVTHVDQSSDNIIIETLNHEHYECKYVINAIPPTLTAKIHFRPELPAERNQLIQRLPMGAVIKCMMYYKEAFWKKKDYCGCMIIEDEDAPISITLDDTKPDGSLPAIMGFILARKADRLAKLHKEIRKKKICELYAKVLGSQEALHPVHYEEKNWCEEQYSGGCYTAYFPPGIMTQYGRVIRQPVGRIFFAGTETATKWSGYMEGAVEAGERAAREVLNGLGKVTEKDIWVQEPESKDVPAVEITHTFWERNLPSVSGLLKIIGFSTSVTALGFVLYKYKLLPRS

Cholinesterase = Cholinesterase (Homo sapiens, UniProt P06276); test: Inhibition of human serum BuChE using butyrylthiocholine as substrate pretreated for 5 mins followed by substrate addition and measured for 5 mins by Ellman's method
Sequence of Cholinesterase (P06276 whole entry): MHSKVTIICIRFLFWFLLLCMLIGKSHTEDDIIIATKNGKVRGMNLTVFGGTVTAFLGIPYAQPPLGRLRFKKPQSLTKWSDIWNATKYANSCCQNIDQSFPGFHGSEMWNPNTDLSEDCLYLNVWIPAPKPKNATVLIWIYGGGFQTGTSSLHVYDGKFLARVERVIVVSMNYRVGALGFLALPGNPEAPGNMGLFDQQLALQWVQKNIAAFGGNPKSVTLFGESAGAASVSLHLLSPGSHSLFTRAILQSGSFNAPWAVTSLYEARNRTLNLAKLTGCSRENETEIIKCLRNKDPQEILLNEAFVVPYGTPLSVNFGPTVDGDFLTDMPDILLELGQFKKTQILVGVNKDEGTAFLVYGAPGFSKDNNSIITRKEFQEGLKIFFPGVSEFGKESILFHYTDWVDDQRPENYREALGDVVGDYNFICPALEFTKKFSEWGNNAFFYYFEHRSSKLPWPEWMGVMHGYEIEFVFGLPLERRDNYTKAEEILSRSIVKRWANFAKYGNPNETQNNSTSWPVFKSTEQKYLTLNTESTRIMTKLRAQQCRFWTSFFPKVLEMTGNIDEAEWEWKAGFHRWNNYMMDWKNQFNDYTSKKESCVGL

[3] = molecular target: T3, Amine oxidase [flavin-containing] B (Homo sapiens, UniProt P27338); test: biochemical; format: cell-based
T3 sequence (P27338 whole entry): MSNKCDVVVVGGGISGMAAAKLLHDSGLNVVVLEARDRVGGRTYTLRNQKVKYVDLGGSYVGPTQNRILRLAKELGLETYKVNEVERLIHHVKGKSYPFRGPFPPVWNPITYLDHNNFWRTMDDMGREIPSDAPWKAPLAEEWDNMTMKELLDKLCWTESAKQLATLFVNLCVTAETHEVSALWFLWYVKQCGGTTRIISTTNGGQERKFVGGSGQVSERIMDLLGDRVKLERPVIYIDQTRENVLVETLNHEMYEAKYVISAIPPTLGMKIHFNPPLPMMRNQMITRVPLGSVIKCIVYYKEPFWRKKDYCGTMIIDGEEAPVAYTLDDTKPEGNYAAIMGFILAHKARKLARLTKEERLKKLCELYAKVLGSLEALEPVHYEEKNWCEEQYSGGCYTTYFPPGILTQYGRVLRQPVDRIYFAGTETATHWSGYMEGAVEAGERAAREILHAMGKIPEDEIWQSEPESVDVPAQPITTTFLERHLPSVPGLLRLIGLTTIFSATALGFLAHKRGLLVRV
Description: Inhibition of recombinant human MAO-B expressed in baculovirus infected BTI insect cells using p-tyramine as substrate pretreated for 15 mins followed by substrate addition by horse-radish peroxidase/amplex red-based fluorescence method

[4] = molecular target: T4, Polyunsaturated fatty acid 5-lipoxygenase (Homo sapiens) (UniProt P09917); test: Inhibition of human 5-lipoxygenase at 10 uM using arachidonic acid as substrate pretreated for 10 mins followed by substrate and ATP addition and measured after 20 mins by […] probe based fluorescence assay relative to control
T4 sequence (whole entry): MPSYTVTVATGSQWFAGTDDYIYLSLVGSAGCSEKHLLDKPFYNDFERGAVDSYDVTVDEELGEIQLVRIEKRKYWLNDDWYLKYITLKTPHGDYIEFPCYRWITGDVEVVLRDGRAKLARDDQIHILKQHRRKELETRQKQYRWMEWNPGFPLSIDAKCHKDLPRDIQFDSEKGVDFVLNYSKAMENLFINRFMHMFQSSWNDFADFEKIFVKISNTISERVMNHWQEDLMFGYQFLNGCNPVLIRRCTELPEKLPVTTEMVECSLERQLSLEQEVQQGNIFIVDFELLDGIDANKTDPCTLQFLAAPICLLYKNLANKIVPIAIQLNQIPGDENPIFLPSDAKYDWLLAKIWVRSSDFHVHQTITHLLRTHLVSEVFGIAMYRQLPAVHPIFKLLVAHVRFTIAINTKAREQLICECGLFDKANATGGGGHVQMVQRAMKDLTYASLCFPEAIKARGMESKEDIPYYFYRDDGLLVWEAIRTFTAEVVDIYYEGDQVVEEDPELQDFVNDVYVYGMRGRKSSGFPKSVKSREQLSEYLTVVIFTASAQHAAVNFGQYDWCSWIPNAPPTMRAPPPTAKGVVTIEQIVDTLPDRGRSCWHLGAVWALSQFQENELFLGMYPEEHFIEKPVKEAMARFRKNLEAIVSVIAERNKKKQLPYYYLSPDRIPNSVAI

in vitro = details: PAMPA, pH 7.4
Description: Permeability of the compound in pH 7.4 PBS by PAMPA-BBB assay

[5] = molecular target: T5, Polyunsaturated fatty acid 5-lipoxygenase (Homo sapiens, UniProt P09917); test: Inhibition of human 5-lipoxygenase using arachidonic acid as substrate pretreated for 10 mins followed by substrate and ATP addition and measured after 20 mins by H2DCFDA probe based fluorescence assay
T5 sequence (P09917 whole entry): T4 sequence (whole entry)

[6] = Antioxidant activity assessed as trolox equivalent of AAPH-induced radical scavenging activity pretreated for 15 mins followed by APPH challenge measured every minute for 80 mins by ORAC-FL assay; format: functional
[7] = molecular target: T6, Sigma intracellular receptor 2 (Rattus norvegicus, UniProt Q5U3Y7); test: Displacement of [3H]DTG from sigma2 receptor in rat liver membranes by liquid scintillation counting method; format: cell membranes, Membrane
T6 sequence (Q5U3Y7 whole entry): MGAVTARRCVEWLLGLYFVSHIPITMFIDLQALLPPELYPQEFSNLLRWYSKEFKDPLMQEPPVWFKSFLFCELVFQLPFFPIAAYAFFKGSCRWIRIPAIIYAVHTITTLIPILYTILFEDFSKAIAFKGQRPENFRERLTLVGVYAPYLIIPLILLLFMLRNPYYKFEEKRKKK

[8] = molecular target: Sigma non-opioid intracellular receptor 1 (Cavia porcellus, UniProt Q60492); test: Displacement of (+)-[3H]pentazocine from guinea pig brain membrane sigma1 receptor by liquid scintillation counting method
Sequence of Sigma non-opioid intracellular receptor 1 (Q60492 whole entry): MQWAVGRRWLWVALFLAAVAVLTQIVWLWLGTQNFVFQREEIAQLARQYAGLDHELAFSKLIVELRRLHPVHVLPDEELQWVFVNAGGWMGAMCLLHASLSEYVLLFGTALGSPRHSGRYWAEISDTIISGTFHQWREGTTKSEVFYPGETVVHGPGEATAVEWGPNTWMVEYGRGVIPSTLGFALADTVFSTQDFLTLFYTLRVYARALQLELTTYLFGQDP

[9] = Selectivity ratio of Ki for displacement of [3H]DTG from sigma2 receptor in rat liver membranes to Ki for displacement of (+)-[3H]pentazocine from guinea pig brain membrane sigma1 receptor; format: cell membranes
Acetylcholinesterase [10] = molecular target: T1, Acetylcholinesterase; test: Inhibition of recombinant human AChE expressed in HEK293 cells using varying levels of acetylthiocholine iodide as substrate by Lineweaver-burk plot analysis
[11] = Antioxidant activity assessed as trolox equivalent of AAPH-induced radical scavenging activity at 10 uM pretreated for 15 mins followed by APPH challenge measured every minute for 80 mins by ORAC-FL assay; format: functional

SMILES | Ratio IC50 (Homo sapiens) | IC50 (Acetylcholinesterase [1]) | IC50 [2] | IC50 (Cholinesterase) | IC50 [3] | inhibition [4] | Papp (in vitro) | IC50 [5] | Activity (umolequiv/umol) [6] | Ki [7] | Ki [8] | Ratio Ki [9] | Ki (Acetylcholinesterase [10]) | Activity [11]
COc1ccc2c(=O)cc(C(=O)NCCC3CCN(Cc4ccccc4)CC3)oc2c1 | 300 | 0.033 µM | > 100 µM | 9.9 µM | > 100 µM | 31% | 7.6 ×10⁻⁶ cm/s | > 100 µM | – | – | – | – | – | –
COc1ccc2oc(C(=O)NCCC3CCN(Cc4ccccc4)CC3)cc(=O)c2c1 | 38 | 0.17 µM | > 100 µM | 6.5 µM | > 100 µM | 33% | 10 ×10⁻⁶ cm/s | > 100 µM | – | – | – | – | – | –
COc1cc2nc(C(=O)NCCC3CCN(Cc4ccccc4)CC3)cc(OC)c2cc1OC | 14 | 0.62 µM | – | 8.79 µM | – | – | 13 ×10⁻⁶ cm/s | – | – | – | – | – | – | –
COc1cccc2oc(C(=O)NCCC3CCN(Cc4ccccc4)CC3)cc(=O)c12 | > 12 | 0.87 µM | – | > 10 µM | – | – | – | – | – | – | – | – | – | –
O=C(NCCC1CCN(Cc2ccccc2)CC1)c1cc(=O)c2c(O)cc(O)cc2o1 | > 17 | 0.58 µM | – | > 10 µM | – | – | 3.7 ×10⁻⁶ cm/s | 95.1 µM | 0.8 | – | – | – | – | –
Nc1ccc2oc(C(=O)NCCC3CCN(Cc4ccccc4)CC3)cc(=O)c2c1 | 105 | 0.041 µM | > 100 µM | 4.3 µM | > 100 µM | – | 7.6 ×10⁻⁶ cm/s | 28.9 µM | 0.9 | 0.421 µM | 0.00145 µM | 290 | 0.062 µM | –
COc1ccc2oc(C(=O)NCCCC3CCN(Cc4ccccc4)CC3)cc(=O)c2c1 | 16 | 0.37 µM | > 100 µM | 5.8 µM | > 100 µM | – | 10.6 ×10⁻⁶ cm/s | 82.4 µM | – | – | – | – | – | inactive
COc1ccc2oc(C(=O)NCC3CCN(Cc4ccccc4)CC3)cc(=O)c2c1 | > 2.8 | 3.61 µM | – | > 10 µM | – | – | 6.8 ×10⁻⁶ cm/s | – | – | – | – | – | – | –
COc1ccc2[nH]c(C(=O)NCCC3CCN(Cc4ccccc4)CC3)cc(=O)c2c1 | > 11 | 0.88 µM | > 100 µM | > 10 µM | > 100 µM | 31% | 12 ×10⁻⁶ cm/s | > 100 µM | – | 0.459 µM | 0.0072 µM | 64 | – | inactive
COc1cccc2c(=O)cc(C(=O)NCCC3CCN(Cc4ccccc4)CC3)[nH]c12 | > 6.1 | 1.64 µM | 52.4 µM | > 10 µM | 71.6 µM | 47% | 15.3 ×10⁻⁶ cm/s | > 100 µM | – | – | – | – | – | inactive
COc1ccc2c(=O)cc(C(=O)NCCC3CCN(Cc4ccccc4)CC3)[nH]c2c1 | > 22 | 0.45 µM | 72.7 µM | > 10 µM | 56.4 µM | 31% | 10.9 ×10⁻⁶ cm/s | > 100 µM | – | 0.376 µM | 0.0452 µM | 8 | – | inactive
COc1cc2oc(C(=O)OCCC3CCN(Cc4ccccc4)CC3)cc(=O)c2cc1OC | – | 0.056 µM | – | > 10 µM | – | – | – | – | – | – | – | – | 0.011 µM | –
COc1cc2[nH]c(C(=O)NCCC3CCN(Cc4ccccc4)CC3)cc(=O)c2cc1OC | > 59 | 0.17 µM | > 100 µM | > 10 µM | > 100 µM | 31% | 5.3 ×10⁻⁶ cm/s | > 100 µM | – | 0.487 µM | 0.0363 µM | 13 | 0.06 µM | inactive
O=C(NCCC1CCN(Cc2ccccc2)CC1)c1cc(=O)c2cc(O)c(O)cc2o1 | > 2.4 | 4.13 µM | 70.5 µM | > 10 µM | 37.9 µM | – | 3.2 ×10⁻⁶ cm/s | 4.2 µM | 1.7 | 0.278 µM | 0.027 µM | 10 | – | –
O=C(NCCC1CCN(Cc2ccccc2)CC1)c1cc(=O)c2ccccc2o1 | 46 | 0.11 µM | – | 5.09 µM | – | 24% | 6.7 ×10⁻⁶ cm/s | > 100 µM | – | – | – | – | 0.057 µM | –
COc1cc2oc(C(=O)NCCCC3CCN(Cc4ccccc4)CC3)cc(=O)c2cc1OC | > 91 | 0.11 µM | > 100 µM | > 10 µM | > 100 µM | 48% | 5 ×10⁻⁶ cm/s | > 100 µM | – | – | – | – | 0.021 µM | inactive
COc1cc2oc(C(=O)NCC3CCN(Cc4ccccc4)CC3)cc(=O)c2cc1OC | > 6.8 | 1.46 µM | – | > 10 µM | – | 45% | – | > 100 µM | – | – | – | – | – | –
COc1cc(OC)c2c(=O)cc(C(=O)NCCC3CCN(Cc4ccccc4)CC3)oc2c1 | 20 | 0.32 µM | – | 6.3 µM | – | – | 8.8 ×10⁻⁶ cm/s | – | – | – | – | – | – | –
COc1ccc2oc(C(=O)OCC3CCN(Cc4ccccc4)CC3)cc(=O)c2c1 | > 1.3 | 7.49 µM | – | > 10 µM | – | – | 6.1 ×10⁻⁶ cm/s | – | – | – | – | – | – | –
O=C(NCCCC1CCN(Cc2ccccc2)CC1)c1cc(=O)c2cc(O)ccc2o1 | > 435 | 0.023 µM | > 100 µM | > 10 µM | > 100 µM | – | 4.5 ×10⁻⁶ cm/s | 15.1 µM | 1.3 | 0.301 µM | 0.00348 µM | 87 | 0.011 µM | –
O=C(NC1CCN(Cc2ccccc2)CC1)c1cc(=O)c2cc(O)ccc2o1 | > 4.2 | 2.36 µM | – | > 10 µM | – | 48% | 1.9 ×10⁻⁶ cm/s | > 100 µM | – | – | – | – | – | –
